A value given as a limit tells only on which side of the number the result lay.

The values that follow come from patent US20250325552A1, “SUBSTITUTED THIADIAZOLYL DERIVATIVES AS DNA POLYMERASE THETA INHIBITORS” (IDEAYA Biosciences, Inc., priority 2020, published 2025).

The target in the experiment is Polθ theta (1-899) (hPolQ) (Homo sapiens (Human), UniProt O75417). Briefly: Biological Assay 1: Polθ ATPase activity, NADH oxidation-coupled enzymatic assay (10 nM enzyme, 30 min). In kind it is biochemical. To be noted: Polθ (1-899) 10 nM, 100 μM ATP, 300 nM dT50 ssDNA; Examples 1 to 268; read-out: ATPase NADH coupling:Standard Screening:hPolQ IC50. The method in brief: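 ATP turnover was coupled to NADH oxidation and followed at 340 nm every minute for 30 min. Enzyme (residues 1-899, 10 nM) sat with compound for 15 min at room temperature before an equal-volume addition of 100 μM ATP plus 300 nM dT50 ssDNA. Progress-curve slopes from 10-point dilutions were fitted by a four-parameter model.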
Chain of Polθ theta (1-899) (hPolQ) (O75417 1-899): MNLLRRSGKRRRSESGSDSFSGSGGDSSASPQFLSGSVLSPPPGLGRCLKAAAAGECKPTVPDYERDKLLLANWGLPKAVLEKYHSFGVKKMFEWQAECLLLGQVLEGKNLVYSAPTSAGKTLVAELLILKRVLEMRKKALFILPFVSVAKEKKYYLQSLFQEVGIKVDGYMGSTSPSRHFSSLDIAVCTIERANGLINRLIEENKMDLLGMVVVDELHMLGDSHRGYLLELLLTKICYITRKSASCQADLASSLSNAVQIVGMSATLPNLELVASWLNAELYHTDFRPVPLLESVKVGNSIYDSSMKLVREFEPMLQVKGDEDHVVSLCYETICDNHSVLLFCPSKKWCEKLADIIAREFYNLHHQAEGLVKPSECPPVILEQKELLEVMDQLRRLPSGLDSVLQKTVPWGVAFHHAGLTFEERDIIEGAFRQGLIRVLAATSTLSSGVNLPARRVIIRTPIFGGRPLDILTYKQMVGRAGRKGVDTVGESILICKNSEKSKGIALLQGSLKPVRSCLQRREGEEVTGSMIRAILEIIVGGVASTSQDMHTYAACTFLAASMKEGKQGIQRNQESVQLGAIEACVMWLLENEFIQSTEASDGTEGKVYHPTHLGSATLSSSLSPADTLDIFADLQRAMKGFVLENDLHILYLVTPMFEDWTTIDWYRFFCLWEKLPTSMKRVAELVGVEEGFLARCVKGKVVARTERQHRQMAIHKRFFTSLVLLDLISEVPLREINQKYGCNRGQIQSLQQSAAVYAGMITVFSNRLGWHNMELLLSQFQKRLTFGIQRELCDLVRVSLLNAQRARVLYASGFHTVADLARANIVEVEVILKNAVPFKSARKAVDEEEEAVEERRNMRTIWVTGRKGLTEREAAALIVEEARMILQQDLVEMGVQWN
Broadly, the IC50 is the point on the concentration scale where inhibition reaches its midpoint. `COc1cnc(Cl)cc1-c1cc(C)ncc1C(=O)Nc1nnc(OC[C@@H]2CCO2)s1` (single isomer, unassigned) [Example 169]: the IC50 is not above 200 nM. In the case of `COc1cnc(C)cc1-c1cc(C)ncc1C(=O)Nc1nnc(OCc2ccc(OC(F)F)cn2)s1` [Example 82, N-(5-((5-(difluoromethoxy)pyridin-2-yl)methoxy)-1,3,4-thiadiazol-2-yl)-5′-methoxy-2′,6-dimethyl-(4,4′-bipyridine)-3-carboxamide] it was not above 200 nM; in that of `COc1cccc(F)c1-c1cc(C)ncc1C(=O)Nc1nnc(OCc2ccc([S@](C)(=N)=O)cc2)s1` [Example 114, 4-(2-fluoro-6-methoxyphenyl)-6-methyl-N-(5-((4-((R)—S-methylsulfonimidoyl)benzyl)oxy)-1,3,4-thiadiazol-2-yl)nicotinamide], not above 200 nM.

As for `COc1cnc(C)cc1-c1cc(C)ncc1C(=O)Nc1nnc(OC[C@H]2CC[C@H](O)CC2)s1` [Example 100, N-(5-(((1r,4r)-4-hydroxycyclohexyl)methoxy)-1,3,4-thiadiazol-2-yl)-5′-methoxy-2′,6-dimethyl-[4,4′-bipyridine]-3-carboxamide], the IC50 was not above 200 nM.

In the case of `COc1cnc(Br)cc1-c1cc(C)ncc1C(=O)Nc1nnc(OC[C@H]2CCOC2)s1` (single isomer, unassigned) [Example 244], the IC50 is not above 200 nM. In the case of `COc1cnc(C)cc1-c1cc(C)ncc1C(=O)Nc1nnc(OCC23CC(O)(C2)C3)s1` [Example 98, N-(5-((3-hydroxybicyclo(1.1.1)pentan-1-yl)methoxy)-1,3,4-thiadiazol-2-yl)-5′-methoxy-2′,6-dimethyl-(4,4′-bipyridine)-3-carboxamide] it was not above 200 nM; in that of `COc1cnc(C)cc1-c1cc(C)ncc1C(=O)Nc1nnc(OCc2ccc(OC(C)C)cn2)s1` [Example 74, N-(5-((5-isopropoxypyridin-2-yl)methoxy)-1,3,4-thiadiazol-2-yl)-5′-methoxy-2′,6-dimethyl-(4,4′-bipyridine)-3-carboxamide], not above 200 nM; in that of `Cc1cc(-c2ccccc2OC(F)F)c(C(=O)Nc2nnc(OCc3ccc(CO)cn3)s2)cn1` [Example 17, 4-(2-(difluoromethoxy)phenyl)-N-(5-((5-(hydroxymethyl)pyridin-2-yl)methoxy)-1,3,4-thiadiazol-2-yl)-6-methylpyridine-3-carboxamide], not above 200 nM. In the case of `COc1ccccc1-c1cc(C)ncc1C(=O)Nc1nnc(OCc2nccc3[nH]ncc23)s1` [Example 10, N-(5-((1H-pyrazolo(4,3-c)pyridin-4-yl)methoxy)-1,3,4-thiadiazol-2-yl)-4-(2-methoxyphenyl)-6-methylnicotinamide] it was 500 to 1000 nM; in that of `COc1cccc(F)c1-c1cc(C)ncc1C(=O)Nc1nnc(OCc2ccc(OC3COC3)cn2)s1` [Example 38, 4-(2-fluoro-6-methoxyphenyl)-6-methyl-N-(5-((5-(oxetan-3-yloxy)pyridin-2-yl)methoxy)-1,3,4-thiadiazol-2-yl)pyridine-3-carboxamide], not above 200 nM. As for `COc1cccc(F)c1-c1cc(C)ncc1C(=O)Nc1nnc(OCC2CCCn3nccc32)s1` (centres unmarked) [Example 135, 4-(2-fluoro-6-methoxyphenyl)-6-methyl-N-(5-(4H,5H,6H,7H-pyrazolo(1,5-a)pyridin-4-ylmethoxy)-1,3,4-thiadiazol-2-yl)pyridine-3-carboxamide], the IC50 was not above 200 nM. For the compound `COc1cnc(Cl)cc1-c1cc(COC2CC2)ncc1C(=O)Nc1nnc(OC[C@H]2CC[C@H](O)CC2)s1` [Example 232, 2′-chloro-6-(cyclopropoxymethyl)-N-(5-(((1r,4r)-4-hydroxycyclohexyl)methoxy)-1,3,4-thiadiazol-2-yl)-5′-methoxy-(4,4′-bipyridine)-3-carboxamide], the IC50 was not above 200 nM.

Take `COc1cnc(Cl)cc1-c1cc(C)ncc1C(=O)Nc1nnc(OC[C@H]2CC[C@H](O)CC2)s1` [Example 129, 2′-chloro-N-(5-(((1r,4r)-4-hydroxycyclohexyl)methoxy)-1,3,4-thiadiazol-2-yl)-5′-methoxy-6-methyl-[4,4′-bipyridine]-3-carboxamide]: the IC50 is not above 200 nM. In the case of `COc1cnc(Cl)cc1-c1cc(C)ncc1C(=O)Nc1nnc(OCC2COC(C)(C)C2)s1` (stereo in doubt) [Example 189, (S)-2′-chloro-N-(5-((5,5-dimethyltetrahydrofuran-3-yl)methoxy)-1,3,4-thiadiazol-2-yl)-5′-methoxy-6-methyl-(4,4′-bipyridine)-3-carboxamide] it was not above 200 nM.

Consider `COc1ccccc1-c1cc(C)ncc1C(=O)Nc1nnc(OCc2cc(CO)ccn2)s1` [Example 42, N-(5-((4-(hydroxymethyl)pyridin-2-yl)methoxy)-1,3,4-thiadiazol-2-yl)-4-(2-methoxyphenyl)-6-methylpyridine-3-carboxamide], for which the IC50 was 200 to 500 nM. In the case of `COc1cccc(F)c1-c1cc(C)ncc1C(=O)Nc1nnc(OCc2ncc(C(C)(C)O)cc2F)s1` [Example 87, N-(5-((3-fluoro-5-(2-hydroxypropan-2-yl)pyridin-2-yl)methoxy)-1,3,4-thiadiazol-2-yl)-4-(2-fluoro-6-methoxyphenyl)-6-methylpyridine-3-carboxamide] it was not above 200 nM; in that of `COc1cccc(F)c1-c1cc(C)ncc1C(=O)Nc1nnc(OCc2ccc(C3CCO3)cn2)s1` (centres unmarked) [Example 130, 4-(2-fluoro-6-methoxyphenyl)-6-methyl-N-(5-((5-(oxetan-2-yl)pyridin-2-yl)methoxy)-1,3,4-thiadiazol-2-yl)nicotinamide], not above 200 nM. In the case of `COc1cccc(F)c1-c1cc2ncn(C)c2cc1C(=O)Nc1nnc(OC[C@H]2CC[C@H](O)CC2)s1` [Example 200, 5-(2-fluoro-6-methoxyphenyl)-N-(5-(((1r,4r)-4-hydroxycyclohexyl)methoxy)-1,3,4-thiadiazol-2-yl)-1-methyl-1H-benzo(d)imidazole-6-carboxamide] it was 200 to 500 nM. With `COc1cnc(Cl)cc1-c1cc(C)ncc1C(=O)Nc1nnc(OCC2COC3(COC3)C2)s1` (centres unmarked) [Example 225, N-(5-((2,5-dioxaspiro(3.4)octan-7-yl)methoxy)-1,3,4-thiadiazol-2-yl)-2′-chloro-5′-methoxy-6-methyl-(4,4′-bipyridine)-3-carboxamide], the IC50 was not above 200 nM. On to `COC(C)(C)c1ccc(COc2nnc(NC(=O)c3cnc(C)cc3-c3c(F)cccc3OC(F)F)s2)nc1` [Example 124, 4-(2-(difluoromethoxy)-6-fluorophenyl)-N-(5-((5-(2-methoxypropan-2-yl)pyridin-2-yl)methoxy)-1,3,4-thiadiazol-2-yl)-6-methylpyridine-3-carboxamide], for which the IC50 is not above 200 nM. In the case of `COc1cnc(Cl)cc1-c1cc(C)ncc1C(=O)Nc1nnc(OC[C@H]2COC(C)(C)CO2)s1` (single isomer, unassigned) [Example 223] it was not above 200 nM; in that of `COc1cnc(Cl)cc1-c1cc(C)ncc1C(=O)Nc1nnc(OC[C@H]2CC[C@@H](O)C2)s1` (single isomer, unassigned) [Example 210], not above 200 nM. For the compound `COc1ccccc1-c1cc(C)ncc1C(=O)Nc1nnc(O[C@H](CO)c2ccc(Cl)cn2)s1` [Example 30, (S)—N-(5-(1-(5-chloropyridin-2-yl)-2-hydroxyethoxy)-1,3,4-thiadiazol-2-yl)-4-(2-methoxyphenyl)-6-methylnicotinamide], the IC50 was in the range of 500 to 1000 nM.
